The source of these data is patent publication US10048272B2, “High-affinity small molecule formylpeptide receptor ligands from screening of combinatorial mixture-based libraries” (STC.UNM, priority 2013, dated 2018).

The Ki is the dissociation constant of the complex between target and ligand, obtained from inhibition or displacement. Read a low Ki as tighter binding. Usually IC50 stands for the midpoint of a concentration-inhibition curve. One may read the EC50 as the concentration giving half of the maximal effect.

Assay [1] deals with T1, FPR1 (Homo sapiens, UniProt P21462).
T1 sequence (P21462 1-350): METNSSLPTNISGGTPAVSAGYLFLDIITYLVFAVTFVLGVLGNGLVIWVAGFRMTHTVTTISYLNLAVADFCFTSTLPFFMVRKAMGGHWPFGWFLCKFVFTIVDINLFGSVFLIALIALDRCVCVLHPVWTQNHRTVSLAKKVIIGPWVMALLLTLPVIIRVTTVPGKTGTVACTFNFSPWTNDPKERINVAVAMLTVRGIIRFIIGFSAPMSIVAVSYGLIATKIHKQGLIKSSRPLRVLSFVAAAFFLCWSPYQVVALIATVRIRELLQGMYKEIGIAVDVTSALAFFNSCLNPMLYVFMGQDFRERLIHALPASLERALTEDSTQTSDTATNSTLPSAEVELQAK
To be noted: literature; cited from earlier work.

Assay [2] addresses T2, FPR2 (Homo sapiens, UniProt P25090).
T2 sequence (P25090 1-351): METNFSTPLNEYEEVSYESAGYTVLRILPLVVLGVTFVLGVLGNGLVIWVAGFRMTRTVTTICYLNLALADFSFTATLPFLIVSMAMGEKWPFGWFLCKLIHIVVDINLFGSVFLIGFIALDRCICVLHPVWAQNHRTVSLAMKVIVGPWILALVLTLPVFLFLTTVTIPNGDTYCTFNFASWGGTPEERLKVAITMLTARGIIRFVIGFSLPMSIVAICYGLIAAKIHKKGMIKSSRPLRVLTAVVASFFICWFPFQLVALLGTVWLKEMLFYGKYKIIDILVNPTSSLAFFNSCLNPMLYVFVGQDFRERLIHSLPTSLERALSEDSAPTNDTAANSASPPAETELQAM
Briefly: Duplex flow cytometry receptor binding assay (WPep-FITC fluorescent ligand competition), RBL/FPR2 cells. Also noted: expressed in transfected cells. The conditions noted are these: for FPR2 selectivity: FPR2 over FPR1. The procedure:
Flow cytometry receptor binding assay. The assay was performed in a “duplex” format in which U937/FPR1 cells were tested together with RBL/FPR2 cells as previously described (Young, et al., 2009)(PubChem Summary AIDs 805 and 1202). The FPR1-expressing cells were stained with a red-fluorescent dye, FuraRed™ allowing them to be distinguished from the FPR2-expressing cells during flow cytometric analysis. A fluorescein label was conjugated to the lysine residue of the WPep peptide (WKYMVm) to produce a fluorescent ligand (WPep-FITC) that bound both FPR1 and FPR2. […] Assays were performed in polystyrene 384-well plates with small volume wells (Greiner #784101). Additions to wells were in sequence as follows: (1) test compounds and control reagents (5 ul/well); (2) the combined suspension of U937/FPR1 and RBL/FPR2 cells (5 ul/well) and; (3) (after 30 min, 4° C. incubation) WPep-FITC (5 ul/well). After an additional 45 min, 4° C. incubation, plates were immediately analyzed using flow cytometry. The assay response range was defined by replicate control wells containing unlabeled receptor-blocking peptide (positive control) or buffer (negative control). fMLFF was used as the FPR1-blocking peptide and unlabeled WPep as the FPR2-blocking peptide. Final concentration of WPep-FITC was 5 nM. The assay was homogeneous in that cells, compounds and fluorescent peptide were added in sequence and the wells subsequently analyzed without intervening wash steps. […] Fluorescence was excited at 488 nm and detected with 530/40 and 680/30 optical bandpass filters for WPep-FITC and FuraRed™, respectively. Test compound inhibition of fluorescent peptide binding was calculated as percent inhibition. WPep-FITC fluorescence intensity measurements of cells from control wells were also used to calculate Z′ factors (Zhang, et al., 1999), which ranged between 0.6 and 0.8 for each assay. […]
(§1) FPR expression ranged from 100,000 to 200,000 receptors per cell in different assays as determined by comparison to standard curves generated with Fluorescein Reference Standard Microbeads (Bangs Laboratories, Fishers, Ind.). […] To account for effects of possible ligand depletion at the higher receptor concentrations, Ki values were calculated from IC50 estimates by the method of Munson and Rodbard (Munson and Rodbard, 1988): Ki=Kd×[y0/(y0+2]+IC50/{1+[p*×(y0+2)]/[2×Kd×(y0+1)]+y0} in which y0 is the initial bound-to-free concentration ratio for the fluorescent ligand, p* is the added concentration of fluorescent ligand and Kd is the dissociation constant for the fluorescent ligand.
On the technique in general: Flow cytometry measures light scatter and fluorescence of single cells or particles in a stream.

The target in assay [3] is T2, FPR2. Briefly: Intracellular calcium mobilization assay, FPR2 cells (agonist and antagonist determinations). The conditions noted are these: for Functional activity in FPR2-mediated intracellular Ca2+ response (agonist/antagonist): result in words. Set-up: expressed in transfected cells. The format is cell-based. The procedure: (§2) Intracellular calcium mobilization assays. Intracellular calcium mobilization assays were performed as previously described with modifications (Edwards, et al., 2005). Briefly, cells were collected by centrifugation (200×g, 10 min, 24° C.) and suspended at 10^6/ml in 1 ml PBS (Ca^2+, Mg^2+ free). Cells were added with 210 nM Fluo4 (FPR2 cells) or with a combination of 210 nM Fluo4 and 210 nM FuraRed (FPR1 cells). After incubation for 30 min at 24° C. cells were washed with 1 ml PBS, suspended in 1 ml TCM (RPMI, 10% FBS) and stored in the dark at 24° C. until used in assays. For test compound agonist determinations, 50 μL from FPR1 and FPR2 cell suspensions were combined, analyzed 10 s in an Accuri C6 flow cytometer (BD Biosciences) to determine baseline Fluo4 fluorescence in the FL1 channel (530/20 nm), then added with 50 μL containing test compounds and analyzed an additional 110 s to evaluate changes in Fluo4 fluorescence intensity. During the analysis FPR1 cells were distinguished from FPR2 cells on the basis of FuraRed fluorescence intensity detected in the FL3 channel ([…]). The innate calcium response was quantified as the maximum % of cells that exceeded the baseline Fluo4 fluorescence intensity over the course of the analysis. These responses were normalized to the innate calcium responses observed in the presence of 11 nM control peptides: 4pep for FPR1 cells and Wpep for FPR2 cells as follows: Normalized Calcium Response (%)=100×innate response % to test compound/innate response % to control peptide.
(§3) For test compound antagonist determinations, 10 μL test compound was added to the combined FPR1/FPR2 cell mixture and incubated 5 min at 24° C. prior to assessing the innate calcium response to subsequent addition of fMLFF or Wpep peptide. In these determinations, fMLFF and Wpep were used at concentrations that produced 90% of the maximal intracellular calcium response (EC90), and responses were normalized with respect to the innate response to each control peptide observed in the absence of test compounds.
(§4) Intracellular Ca^2+ dose response curves were also fitted using nonlinear least-squares regression in a sigmoidal dose response model with variable slope. Curve fit statistics were used to determine the concentration of added test compound competitor that inhibited Ca^2+ responses by 50 percent (IC50) for antagonists or effected increases in Ca^2+ response by 50% (EC50) for agonists. Since responses were normalized relative to control stimuli the top and bottom of the fitted curves were fixed at 100 and 0.
On the technique in general: A change in cytosolic calcium serves as a functional read-out for many receptors and channels.

For assay [4], the target named is T1, FPR1. Briefly: Duplex flow cytometry receptor binding assay (WPep-FITC fluorescent ligand competition), U937/FPR1 cells. Also noted: expressed in transfected cells; host or cells: U937 cells (U937/FPR1). To be noted: for Ki: WPep-FITC displacement, U937/FPR1 cells. The procedure: Flow cytometry receptor binding assay. The assay was performed in a “duplex” format in which U937/FPR1 cells were tested together with RBL/FPR2 cells as previously described (Young, et al., 2009)(PubChem Summary AIDs 805 and 1202). The FPR1-expressing cells were stained with a red-fluorescent dye, FuraRed™ allowing them to be distinguished from the FPR2-expressing cells during flow cytometric analysis. A fluorescein label was conjugated to the lysine residue of the WPep peptide (WKYMVm) to produce a fluorescent ligand (WPep-FITC) that bound both FPR1 and FPR2. […] Assays were performed in polystyrene 384-well plates with small volume wells (Greiner #784101). Additions to wells were in sequence as follows: (1) test compounds and control reagents (5 ul/well); (2) the combined suspension of U937/FPR1 and RBL/FPR2 cells (5 ul/well) and; (3) (after 30 min, 4° C. incubation) WPep-FITC (5 ul/well). After an additional 45 min, 4° C. incubation, plates were immediately analyzed using flow cytometry. The assay response range was defined by replicate control wells containing unlabeled receptor-blocking peptide (positive control) or buffer (negative control). fMLFF was used as the FPR1-blocking peptide and unlabeled WPep as the FPR2-blocking peptide. Final concentration of WPep-FITC was 5 nM. The assay was homogeneous in that cells, compounds and fluorescent peptide were added in sequence and the wells subsequently analyzed without intervening wash steps. The HyperCyt™ high-throughput flow-cytometry platform (Kuckuck, et al., 2001; Ramirez, et al., 2003) was used to sequentially sample cells from wells of 384-well microplates (2 ul/sample) for presentation to a CyAn flow cytometer (Beckman-Coulter) at a rate of 40 samples/min. Fluorescence was excited at 488 nm and detected with 530/40 and 680/30 optical bandpass filters for WPep-FITC and FuraRed™, respectively. Test compound inhibition of fluorescent peptide binding was calculated as percent inhibition. WPep-FITC fluorescence intensity measurements of cells from control wells were also used to calculate Z′ factors (Zhang, et al., 1999), which ranged between 0.6 and 0.8 for each assay.
Dose response determinations. Fluorescent ligand competition dose response assays were performed essentially as described for single concentration assays except that test compounds were initially tested at a starting concentration of 10 mM in DMSO and serially diluted 1:3 to produce final concentration ranging from 67 μM to 0.1 nM. The resulting ligand competition curves were fitted by Prism software (GraphPad Software, Inc., San Diego, Calif.) using nonlinear least-squares regression in sigmoidal dose response model with variable slope, also known as the four parameter logistic equation. […]
as §1

Assay [5] concerns the target T1, FPR1. Put plainly: Intracellular calcium mobilization assay, FPR1 cells (agonist and antagonist determinations). The format is cell-based. Also noted: expressed in transfected cells; host or cells: U937 cells (U937/FPR1). To be noted: for Functional activity in FPR1-mediated intracellular Ca2+ response (agonist/antagonist): result in words. The procedure:
as §2, §3, §4

The target in assay [6] is T2, FPR2. To be noted: literature; cited from earlier work.
Where [7] appears, read: second compound of the printed pair relative to the first (1754-26 to 1754-56).

Structures are written as SMILES. Entries after “also recorded” stand apart in the source; their conditions may differ.

For the compound `CCCCOc1ccc(C(=O)NN2C(=O)c3ccccc3NC2c2ccc(O)cc2)cc1` (centres unmarked) [Quin-C7], on FPR1 [1], the “Functional activity at FPR1 (in words)” value is recorded as “antagonist”.
Regarding `CC(C)[C@H]1CNC(=O)C(=O)N1C[C@@H]1CCCN1C[C@@H](Cc1ccc2ccccc2c1)N1C[C@@H](Cc2ccc(O)cc2)N(CC2CCCCC2)C(=O)C1=O` [1754-31], the inhibition constant Ki was 1 nM at FPR2 [2] (WPep-FITC displacement, RBL/FPR2 cells) and greater than 10000 nM on FPR1 [4]. Moreover, the FPR2 selectivity at FPR2 [2] (as printed in b133 ('nM Ki')) is reported as > 10,000 nM; at FPR2 [2] (no unit) it was > 10,000. Further, the half-maximal inhibitory concentration (IC50) on FPR2 [3] (antagonist determination, Wpep at EC90, read-out: IC50, intracellular Ca2+ response, FPR2 antagonist) was found to be 81 nM. For the same compound, the “Functional activity in FPR2-mediated intracellular Ca2+ response (agonist/antagonist)” value at FPR2 [3] is given as “antagonist”. Besides, the “Receptor selectivity, FPR1 versus FPR2, in ligand competition binding (in words)” value at FPR1 [4] was “FPR2 selective”.
On to `CCCC[C@H]1CNC(=O)C(=O)N1C[C@@H]1CCCN1C[C@@H](CCC)N1C[C@@H](Cc2ccc(O)cc2)N(CCc2ccc(-c3ccccc3)cc2)C(=O)C1=O` [1754-56], for which the “Decrease of activity for FPR2 (potency difference, pKi)” value on FPR2 [2] (setting [7]) is 1.28 log units. Further, the “EC50, FPR2-mediated Ca2+ response, agonist (in words)” value on FPR2 [3] (matched the Ki value of the ligand displacement assay) is listed as “low micromolar”. Moreover, on FPR2 [3] (maximum response relative to control peptide Wpep (WKYMVm)), the “Response efficacy (fitted Top), Ca2+ response in FPR2 cells” value amounted to 98%. Moreover, the “Functional activity in FPR2-mediated intracellular Ca2+ response (agonist/antagonist)” value on FPR2 [3] was “agonist”. Besides, at FPR1 [4], the “Receptor selectivity, FPR1 versus FPR2, in ligand competition binding (in words)” value was “FPR1 selective”. Also, the “Increase of activity for FPR1 (potency difference, pKi)” value on FPR1 [4] (setting [7]) was 1.36 log units. Also, on FPR1 [5], the “Functional activity in FPR1-mediated intracellular Ca2+ response (agonist/antagonist)” value is on record as “antagonist”.
In turn, `CCCC[C@H](CN(C(=O)Nc1ccccc1)[C@@H](C)CNC(=O)Nc1ccccc1)N(CCCCc1ccccc1)C(=O)Nc1ccccc1` [1753-103] showed an inhibition constant (Ki) at FPR1 [4] of 4 nM. Further, the half-maximal effective concentration (EC50) at FPR1 [5] (agonist determination, read-out: EC50, intracellular Ca2+ response, FPR1 agonist) is 131 nM. Further, on FPR1 [5] (maximum response relative to control peptide 4pep (fMLFF)), the “Response efficacy (fitted Top), Ca2+ response in FPR1 cells” value was found to be 78%. In addition, the “Functional activity in FPR1-mediated intracellular Ca2+ response (agonist/antagonist)” value at FPR1 [5] was “selective partial agonists; also recorded: agonist”.
In the case of `CCCCOc1ccc(C(=O)NN2C(=O)c3ccccc3NC2c2ccc(OC)cc2)cc1` (centres unmarked) [Quin-C1], the “Functional activity at FPR2 (in words)” value at FPR2 [6] is reported as “agonist”.
